Literature values in patent publication US8703719B1, “Method and composition for improved muscle performance” (Bio-Engineered Supplements and Nutrition, Inc., priority 2009, dated 2014).

Conditions: oral; weight training individuals

In the case of C[N+](C)(C)CC(=O)[O-] [trimethylglycine (betaine), Trimethylglycine], the “increase in bench-throw power compared with placebo” value is given as 16% and the “increase in isometric bench-press force compared with placebo” value is given as 28%.
